Patent publication EP2333100B1, “NAD(P)+-cofactor regeneration system und its use” (priority 2009, dated 2011)

What was measured:
Assay type in all cases: biochemical
[1] = target: 12α-HSDH aus Clostridium sp. group P strain 48-50, Wildtypenzym (Clostridium sp., UniProt P21215); experiment: Product inhibition of 12α-HSDH by 12-ketochenodeoxycholic acid; settings: loss of activity at 5 % Umsatz; 100 % = activity at 0 % Umsatz (5mM CS); product concentration not given
Text: "Poduktinhibition" der 12α-HSDH beschreibt die Verringerung der enzymatischen Aktivität in Gegenwart eines bei einer durch das Enzym katalysierten enzymatischen Umsetzung gebildeten Produkts. Bei Umsetzung zu CS ist so z.B. eine Inhibition durch 12-Keto-CDCS zu beobachten. Eine "Verringerung der Produktinhibition" beschreibt die verringerte prozentuale Abnahme der Enzymaktivität einer erfindungsgemäß eingesetzten Enzymmutante im Vergleich zu einem Referenzsystem, wie z.B. dem nativen HSDH-Enzym, jeweils bezogen auf die bei 0 % Umsatz (entsprechend 5mM CS) ermittelte Enzymaktivität als 100 %-Aktivitätswert. Diese Verringerung kann, wie im experimentellen Teil, bzw. in der Legende zu Figur 9 beschrieben, bestimmt werden. Verringerungen der Produktinhibition können auch über das Verhältnis der Restaktivitäten von Mutante zu Referenzenzym jeweils bestimmt bei gleichem prozentualen Umsatz, ausgedrückt werden. So kann die ererfindungsgemäß eingesetzte Mutante eine um den Faktor 1,1 bis 100, wie z.B. 1,5 bis 20 oder 2 bis 10 erhöhte Aktivität besitzen.
Die Aktivität wird wie folgt definiert: 1 U des Enzyms entspricht der Enzymmenge, welche die Umsetzung von 1 µmol/min einer 5 mM Cholsäurelösung in KaliumphosphatPuffer (50 mM, pH 8,0) bei Raumtemperatur (d.h. ca. 20 °C-23 °C) katalysiert. […]

[2] = target: Reduktase Domäne der CYP102A1 aus Bacillus megaterium (EC 1.6.2.4), SEQ ID NO: 24 (Priestia megaterium, UniProt P14779); experiment: NADPH oxidation with DCIP as electron acceptor, tolerance to cholic acid; settings: remaining activity with 0,1 M Cholsäure, 100% = ohne Cholsäure; 75 µM DCIP, 100 µM NADPH, 50 mM Tris-HCl (pH 8); read-out: Mit 0, 1 M Cholsäure, U/mg Protein (%)
Reduktase Domäne der CYP102A1 aus Bacillus megaterium (EC 1.6.2.4), SEQ ID NO: 24, sequence (P14779 473-1049): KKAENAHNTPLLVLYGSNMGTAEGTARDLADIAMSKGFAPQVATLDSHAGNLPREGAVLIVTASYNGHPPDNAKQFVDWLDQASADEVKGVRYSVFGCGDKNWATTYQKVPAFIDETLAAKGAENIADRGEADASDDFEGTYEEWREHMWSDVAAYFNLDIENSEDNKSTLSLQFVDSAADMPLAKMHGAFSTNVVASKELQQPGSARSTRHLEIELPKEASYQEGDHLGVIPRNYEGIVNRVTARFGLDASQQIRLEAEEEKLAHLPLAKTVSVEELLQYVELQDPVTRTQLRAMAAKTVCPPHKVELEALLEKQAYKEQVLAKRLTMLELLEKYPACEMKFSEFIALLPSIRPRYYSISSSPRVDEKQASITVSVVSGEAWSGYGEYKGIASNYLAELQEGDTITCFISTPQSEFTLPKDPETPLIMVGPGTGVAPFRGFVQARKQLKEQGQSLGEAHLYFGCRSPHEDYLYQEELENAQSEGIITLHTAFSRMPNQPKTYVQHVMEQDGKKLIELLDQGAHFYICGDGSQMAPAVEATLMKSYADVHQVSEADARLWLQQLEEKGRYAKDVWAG
Protocol: (§1) Die NADPH-Dehydrogenase Aktivität wurde unter Verwendung von Dichlorphenolindophenol (DCIP) als Substrat bestimmt. Die Reaktion wurde durch Zugabe von Enzym (2-50 µl) zu 1 ml Reaktionsgemisch, enthaltend 50 mM Tris-HCl (pH 8), 75 µM DCIP, 100 µM NADPH mit bzw. ohne 0,1 M Cholsäure gestartet. Die Reduktion von DCIP wurde durch Abnahme der Extinktion bei 600 nm spektrophotometrisch bestimmt. Die Aktivitätseinheit (µM DCIP reduziert/min) wurde mit Hilfe des Extinktions-Coeffizienten von DCIP von 20 mM^-1 cm^-1 bei 600 nm bestimmt.
(§2) Folgende Enzyme wurden getestet: Flavodoxin Reduktase aus E. coli, Reduktase Domäne der CYP102A1 aus Bacillus megaterium; Glutathion Reduktase aus Saccharomyces cerevisiae und Diaphorase aus Clostridium kluyveri. Die Ergebnisse sind in der folgenden Tabelle 2 zusammengestellt.

[3] = system: Diaphorase aus Clostridium kluyveri; experiment: as above; settings: remaining activity with 0,1 M Cholsäure, 100% = ohne Cholsäure; 75 µM DCIP, 100 µM NADPH, 50 mM Tris-HCl (pH 8)
Protocol: as §1, §2

[4] = target: T1, Flavodoxin Reduktase aus E. coli (EC 1.18.1.2), SEQ ID NO: 26 (Escherichia coli, UniProt P28861); experiment: as above; settings: remaining activity with 0,1 M Cholsäure, 100% = ohne Cholsäure; 75 µM DCIP, 100 µM NADPH, 50 mM Tris-HCl (pH 8); read-out: Mit 0, 1 M Cholsäure, U/mg Protein (%)
T1 construct: made in house; host or cells: E. coli
T1 sequence (P28861 whole entry): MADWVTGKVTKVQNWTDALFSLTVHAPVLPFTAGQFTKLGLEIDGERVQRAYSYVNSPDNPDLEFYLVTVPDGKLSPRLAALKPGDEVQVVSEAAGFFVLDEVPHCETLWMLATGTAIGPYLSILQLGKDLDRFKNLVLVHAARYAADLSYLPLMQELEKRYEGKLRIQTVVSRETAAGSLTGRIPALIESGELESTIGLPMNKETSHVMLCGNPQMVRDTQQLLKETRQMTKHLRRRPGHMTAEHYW
Protocol: as §1, §2

[5] = target: T2, Glutathion Reduktase aus Saccharomyces cerevisiae (Saccharomyces cerevisiae, UniProt P41921); experiment: as above; settings: remaining activity with 0,1 M Cholsäure, 100% = ohne Cholsäure; 75 µM DCIP, 100 µM NADPH, 50 mM Tris-HCl (pH 8); read-out: Mit 0, 1 M Cholsäure, U/mg Protein (%)
T2 construct: purchased Sigma
T2 sequence (P41921 1-467 isoform P41921-2): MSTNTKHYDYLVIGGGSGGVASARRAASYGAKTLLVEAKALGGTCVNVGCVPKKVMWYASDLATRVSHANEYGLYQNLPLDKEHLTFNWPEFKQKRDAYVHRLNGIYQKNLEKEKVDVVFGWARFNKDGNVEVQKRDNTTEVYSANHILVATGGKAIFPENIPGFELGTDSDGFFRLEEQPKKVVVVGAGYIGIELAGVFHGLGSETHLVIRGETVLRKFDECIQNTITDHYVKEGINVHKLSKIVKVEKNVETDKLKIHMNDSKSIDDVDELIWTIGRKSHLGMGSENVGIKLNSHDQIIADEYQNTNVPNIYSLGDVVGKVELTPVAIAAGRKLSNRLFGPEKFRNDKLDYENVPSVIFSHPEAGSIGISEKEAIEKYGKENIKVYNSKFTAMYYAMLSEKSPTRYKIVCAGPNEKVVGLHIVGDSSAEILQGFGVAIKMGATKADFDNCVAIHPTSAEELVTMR
Protocol: as §1, §2

[6] = target: T3, NAD(P)H-Flavin Reduktase aus E. coli (EC 1.5.1.29 / 1.16.1.3), SEQ ID NO: 30 (Escherichia coli, UniProt P0AEN1); experiment: NADPH oxidation with riboflavin as electron acceptor, tolerance to cholic acid; settings: activity with 0,1 M Cholsäure, 100% = ohne Cholsäure; 10 µM Riboflavin, 100 µM NADPH, 50 mM Tris-HCl (pH 8); read-out: Mit 0, 1 M Cholsäure, U/ml E. coli Zell-Lysate (%)
T3 construct: made in house; host or cells: E. coli (cell lysate)
T3 sequence (P0AEN1 whole entry): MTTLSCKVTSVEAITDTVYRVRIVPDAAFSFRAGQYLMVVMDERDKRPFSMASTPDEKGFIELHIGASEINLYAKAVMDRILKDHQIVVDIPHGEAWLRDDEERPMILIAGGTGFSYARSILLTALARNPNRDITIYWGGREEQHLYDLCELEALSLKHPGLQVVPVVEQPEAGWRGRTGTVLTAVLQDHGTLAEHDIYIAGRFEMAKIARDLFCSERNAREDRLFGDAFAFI
Protocol: (§3) Die NADPH-Oxidation unter Verwendung von Riboflavin als Elektronenakzeptor wurde in 1 ml Reaktionsmedium, enthaltend 2-50 µl Enzymlösung, 50 mM Tris-HCl (pH 8), 10 µM Riboflavin, 100 µM NADPH mit und ohne 0,1 M Cholsäure bestimmt. Die Oxidation von NADPH wurde über die Abnahme der Extinktion bei 340 nm spektrophotometrisch aufgezeichnet. Die Aktivitätseinheit (uM NADPH oxidiert/min) wurde mit Hilfes des millimolaren Extinktionscoeffizienten für NADPH von 6,22 mM^-1 cm^-1 bei 340 nm bestimmt.
(§4) Folgende Enzyme wurden getestet: NADPH Dehydrogenase aus Bacillus stearothermophilus Sulfit Reduktase, Flavin-Subunit von Sulfit-Reduktase aus E. coli und NAD(P)H-Flavin Reduktase aus E. coli. Die Ergebnisse sind in folgender Tabelle 3 zusammengefasst: TABELLE 3

[7] = target: T4, NADPH Dehydrogenase aus Sulfit-Reduktase (E. coli); Flavin-Subunit von Sulfit-Reduktase aus E. coli (Escherichia coli, UniProt P38038); experiment: as above; settings: activity with 0,1 M Cholsäure, 100% = ohne Cholsäure; 10 µM Riboflavin, 100 µM NADPH, 50 mM Tris-HCl (pH 8)
T4 construct: made in house; host or cells: E. coli (cell lysate)
T4 sequence (P38038 whole entry): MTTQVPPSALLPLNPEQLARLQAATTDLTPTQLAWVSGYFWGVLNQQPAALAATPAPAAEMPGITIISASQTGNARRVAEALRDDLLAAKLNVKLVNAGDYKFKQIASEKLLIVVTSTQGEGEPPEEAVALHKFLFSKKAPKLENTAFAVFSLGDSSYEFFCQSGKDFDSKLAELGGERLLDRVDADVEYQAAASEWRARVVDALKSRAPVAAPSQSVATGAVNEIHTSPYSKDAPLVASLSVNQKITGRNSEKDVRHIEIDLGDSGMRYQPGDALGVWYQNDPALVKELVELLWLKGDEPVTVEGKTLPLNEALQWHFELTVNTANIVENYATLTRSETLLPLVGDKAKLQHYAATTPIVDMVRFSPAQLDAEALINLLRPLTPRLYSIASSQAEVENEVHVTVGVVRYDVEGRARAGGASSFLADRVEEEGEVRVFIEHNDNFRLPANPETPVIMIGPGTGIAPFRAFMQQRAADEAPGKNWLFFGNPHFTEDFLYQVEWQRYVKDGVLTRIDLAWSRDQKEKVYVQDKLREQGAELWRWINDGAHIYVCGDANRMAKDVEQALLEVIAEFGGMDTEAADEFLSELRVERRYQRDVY
Protocol: as §3, §4

[8] = system: NADPH Dehydrogenase aus Bacillus stearothermophilus Sulfit Reduktase (EC 1.8.1.2), SEQ ID NO: 28; experiment: as above; settings: activity with 0,1 M Cholsäure, 100% = ohne Cholsäure; 10 µM Riboflavin, 100 µM NADPH, 50 mM Tris-HCl (pH 8)
Protocol: as §3, §4

12α-HSDH aus Clostridium sp. group P strain 48-50, Wildtypenzym, sequence (P21215 whole entry): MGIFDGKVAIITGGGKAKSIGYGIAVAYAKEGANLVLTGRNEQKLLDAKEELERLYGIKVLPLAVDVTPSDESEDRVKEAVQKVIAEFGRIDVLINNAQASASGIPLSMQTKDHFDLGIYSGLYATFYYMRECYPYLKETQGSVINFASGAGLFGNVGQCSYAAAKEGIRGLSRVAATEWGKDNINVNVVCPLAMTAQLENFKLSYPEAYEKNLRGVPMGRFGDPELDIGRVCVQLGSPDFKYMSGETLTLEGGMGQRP

| Structure (SMILES) | Verlust (Produktinhibierung durch 12-Ketochenodesoxycholsäure) [1] [%] | activity at 100000 µM [2] [%] | Mit 0, 1 M Cholsäure, U/mg Protein (%) [3] | activity at 100000 µM [4] [%] | activity at 100000 µM [5] [%] | activity at 100000 µM [6] [%] | Mit 0, 1 M Cholsäure, U/ml E. coli Zell-Lysate (%) [7] | Mit 0, 1 M Cholsäure, U/ml E. coli Zell-Lysate (%) [8] |
| --- | --- | --- | --- | --- | --- | --- | --- | --- |
| C[C@H](CCC(=O)O)[C@H]1CC[C@H]2[C@@H]3[C@H](O)C[C@@H]4C[C@H](O)CC[C@]4(C)[C@H]3CC(=O)[C@]12C [12-Ketochenodesoxycholsäure] | 60 |  |  |  |  |  |  |  |
| C[C@H](CCC(=O)O)[C@H]1CC[C@H]2[C@@H]3[C@H](O)C[C@@H]4C[C@H](O)CC[C@]4(C)[C@H]3C[C@H](O)[C@]12C [Cholsäure] |  | 35 | 0,26 (3 %) | 93 | 15 | 5 | 2,1 (6 %) | 22,1 (155 %) |
